Earlier results, collected in patent US9630918B2, “Cysteine, N-acetylcysteine, and penicillamine related compounds, pharmaceutical compositions thereof, and methods of use” (priority 2015, dated 2017).

Assays:
[1] = not given; remark: listed apart in the source
stable COPD = details: patients with stable COPD, clinical study

## CC(C)(S)[C@@H](N)C(=O)O [D-penicillamine, D-Penicillamine]
other
  interpatient oral variability: high degree of interpatient oral variability

## CC(=O)N[C@@H](CS)C(=O)O [NAC, N-Acetyl-L-cysteine]
[1]
  oral bioavailability: 4-10%
Stable COPD
  exacerbation frequency: decrease exacerbation frequency
  small airways function: improve small airways function
